Columns and labels:
[1] = tested on: Brca2-complemented derivative (VC8-BAC); assay: Clonogenic survival, continuous exposure, Brca2-complemented VC8-BAC cells; type: cell-based, Chinese hamster; conditions: matched control VC8-BAC, clonogenic assay (FIG. 2)
[2] = tested on: Brca2 deficient (Cre24) ES cells; assay: Clonogenic survival, continuous exposure, Brca2 deficient ES cells; type: cell-based; conditions: ratio of SF50 wild type / Brca2 deficient ES cells
Procedure: (§1) To assess the stand alone activity of a PARP inhibitor on Braca 1 and 2 deficient cells the following protocols were used.
(§2) Compound (4) was dissolved in DMSO at 10 mM and stored at −20° C. in the dark.
(§3) VC8 cells and the mouse Brca2 BAC complemented derivatives were as described in M. Kraakman-van der Zwet, et al., Mol Cell Biol 22, 669-79 (2002)). ES cells defective in Brca2 function have been described previously (Tutt, et al., EMBO Rep 3, 255-60 (2002)). The construction of ES cells defective in Brca1 will be described elsewhere but have previously been validated (Foray, et al., Embo J, 22, 2860-71 (2003)).
(§4) For measurement of cellular sensitivity to a PARP inhibitor (compound 4), cell cultures in exponential growth were trypsinised and seeded at various densities in 6-well plates onto Mitomycin C inactivated mouse embryonic fibroblasts and where appropriate treated with the test compound after 18 hours. For continuous exposure, cells were re-fed every 4 days with fresh medium and inhibitor. After 10-14 days, cells were washed with PBS, fixed in methanol and stained with crystal violet. Colonies containing greater than approximately 50 cells were counted. Experiments were performed at least three times in triplicate.

[3] = tested on: Brca1 wild type (11CO) ES cells; assay: Clonogenic survival, continuous exposure, Brca1 wild type ES cells; type: cell-based; conditions: matched wild type cells (Brca1), clonogenic assay, continuous exposure (FIG. 1A)
Procedure: as §1, §2, §3, §4

[4] = tested on: Chinese hamster ovary cells deficient in Brca2 (VC8); assay: Clonogenic survival, continuous exposure, Brca2 deficient VC8 cells; type: cell-based
[5] = tested on: Brca2 wild type (D3) ES cells; assay: Clonogenic survival, continuous exposure, Brca2 wild type ES cells; type: cell-based; conditions: matched wild type cells (Brca2), clonogenic assay, continuous exposure (FIG. 1B)
Procedure: as §1, §2, §3, §4

[6] = tested on: Brca1 deficient (Cre10) ES cells; assay: Clonogenic survival, continuous exposure, Brca1 deficient ES cells; type: cell-based
Procedure: as §1, §2, §3, §4

O=C(c1cc(Cc2n[nH]c(=O)c3ccccc23)ccc1F)N1CCCNCC1 [compound 4, 4-[3-([1,4]diazepane-1-carbonyl)-4-fluorobenzyl]-2H-phthalazin-1-one]
SF50 (dosage at which 50% of cells survived) [1]: 30 µM | fold enhanced sensitivity of Brca2 mutant cells compared to wild type cells [2]: 1,500 fold | SF50 (dosage at which 50% of cells survived) [3]: 7 µM | SF50 (dosage at which 50% of cells survived) ([4]; Brca2 deficient VC8 line, clonogenic assay (FIG. 2)): 50 nM | fold enhanced sensitivity of Brca2 mutant cells compared to wild type cells ([4]; ratio of SF50 VC8-BAC / VC8): 600 fold | SF50 (dosage at which 50% of cells survived) [5]: 18 µM | SF50 (dosage at which 50% of cells survived) ([6]; cells deficient in Brca1, clonogenic assay, continuous exposure (FIG. 1A)): 15 nM | fold enhanced sensitivity of Brca1 mutant cells compared to wild type cells ([6]; ratio of SF50 wild type / Brca1 deficient): 467 fold

Reference: patent publication US11160803B2, “Phthalazinone derivatives” (KUDOS PHARMACEUTICALS LIMITED, priority 2003, dated 2021)
